The subject of assay [1] is constitutive active colorectal cancer cell (CRC) Wnt pathway. Kind of assay: HCT116 TOPFlash cellular reporter assay (Super TopFlash vector, luciferase). Format: cell-based. To be noted: Homo sapiens, HCT-116; HCT116 Super TopFlash reporter cells, 36 hours incubation, dilution series 50 μM to 15 nM, luciferase expression. The protocol:
In order to discover and characterize small molecules which inhibit the constitutive active colorectal cancer cell (CRC) Wnt pathway, a cellular reporter assay was employed. The corresponding assay cell was generated by transfection of the colorectal cancer cell line HCT116 (ATCC, #CCL-247) with the Super TopFlash vector (Morin, Science 275, 1997, 1787-1790; Molenaar et al., Cell 86 (3), 1996, 391-399). The HCT116 cell line is cultivated at 37° C. and 5% CO2 in DMEM/F-12 (Life Technologies, #11320-074), supplemented with 2 mM glutamine, 20 mM HEPES, 1.4 mM pyruvate, 0.15% Na-bicarbonate and 10% foetal bovine serum (GIBCO, #10270), this cancer cell line is pathophysiological relevant since it carries a deletion of position S45 in the β-catenin gene, leading to constitutive active Wnt signaling. Stable transfectants were generated by cotransfection with pcDNA3 and selection of stable transfected cells with 1 mg/ml G418.
(§1) In preparation of the assay, the two cell lines were plated 24 hours before at 10000 cells per well of a 384 micro titre plate (MTP) in 30 μL growth medium. Selective inhibitory activity for small molecules on the mutated Wnt pathway was determined after parallel incubation of both (TOP and FOP) HCT116 reporter cell lines with a compound dilution series from 50 μM to 15 nM in steps of 3.16-fold dilutions in CAFTY buffer (130 mM NaCl, 5 mM KCl, 20 mM HEPES, 1 mM MgCl2, 5 mM NaHCO3, pH 7.4) containing 2 mM Ca^2+ and 0.01% BSA. The compounds were thereby serially prediluted in 100% DMSO and thereafter in addition 50 fold into the CAFTY compound dilution buffer (described above). From this dilution 10 μL were added to the cells in 30 μL growth medium and incubated for 36 hours at 37° C. and 5% CO2.

In assay [2] the test system is HCT116 cells cotransfected with the FOP control vector (non-functional TCF elements). Kind of assay: HCT116 FOPFlash control reporter assay (FOP control vector, luciferase). To be noted: Homo sapiens, HCT-116, 36 hours incubation, dilution series 50 μM to 15 nM, luciferase expression. Format: cell-based. The protocol:
In a parallel approach, HCT116 cells were cotransfected with the FOP control vector and pcDNA3. The FOP vector is identical to the TOP construct, but it contains instead of functional TCF elements a randomized, non-functional sequence. For this transfection a stable transfected cell line was generated as well.
as §1

A value given as a limit tells only on which side of the number the result lay.

Turning to `O=C(Nc1ccc(-c2ccccc2)cc1)c1ccc(OC(F)(F)F)c(C(=O)Nc2ccncc2F)c1` [Example 22, N^1-(biphenyl-4-yl)-N^3-(3-fluoropyridin-4-yl)-4-(trifluoromethoxy)isophthalamide], the IC50 was 0.375 µM in assay [1] and no less than 50 µM in assay [2].
`Cc1cnccc1NC(=O)c1cc(C(=O)Nc2ccc(-c3ccccc3F)nc2)ccc1OC(F)(F)F` [Example 19, N^1-[6-(2-fluorophenyl)pyridin-3-yl]-N^3-(3-methylpyridin-4-yl)-4-(trifluoromethoxy)isophthalamide]: the IC50 in assay [1] is 0.878 µM; in assay [2], no less than 50 µM.
As for `COc1ccc(C(=O)Nc2ccc(-c3ccccc3F)nc2)cc1C(=O)Nc1ccnc(C)c1` [Example 26, N^1-[6-(2-fluorophenyl)pyridin-3-yl]-4-methoxy-N^3-(2-methylpyridin-4-yl)isophthalamide], the IC50 is 0.36 µM in assay [1] and no less than 50 µM in assay [2].
In the case of `COc1ccc(C(=O)Nc2ccc(-c3ccccc3F)nc2)cc1C(=O)Nc1cccnc1C` [Example 25, N^1-[6-(2-fluorophenyl)pyridin-3-yl]-4-methoxy-N^3-(2-methylpyridin-3-yl)isophthalamide], the IC50 was 0.84 µM in assay [1] and no less than 50 µM in assay [2].
Consider `Cc1cncc(NC(=O)c2cc(C(=O)Nc3ccc(-c4ccccc4)cc3)ccc2OC(F)(F)F)c1` [Example 47, N^1-(biphenyl-4-yl)-N^3-(5-methylpyridin-3-yl)-4-(trifluoromethoxy) isophthalamide], for which the IC50 was 2.63 µM in assay [1] and no less than 50 µM in assay [2].
For `COc1cnccc1NC(=O)c1cc(C(=O)Nc2ccc(-c3ccccc3F)nc2)ccc1OC` [Example 28, N^1-[6-(2-fluorophenyl)pyridin-3-yl]-4-methoxy-N^3-(3-methoxypyridin-4-yl)isophthalamide] the same measures were 0.225 µM and no less than 50 µM.
The matching figures for `COCC(C)(C)CNC(=O)c1cc(NC(=O)c2ccc(-c3ccccc3)cc2)ccc1OC` [Example 35, N-{4-methoxy-3-[(3-methoxy-2,2-dimethylpropyl)carbamoyl]phenyl}biphenyl-4-carboxamide]: 4.35 µM and no less than 50 µM.
Take `O=C(Nc1ccc(-c2cccnc2)cn1)c1ccc(OC(F)(F)F)c(C(=O)NCc2cnccn2)c1` [Example 50, N^1-(3,3′-bipyridin-6-yl)-N^3-(pyrazin-2-ylmethyl)-4-(trifluoromethoxy) isophthalamide]: the values for the IC50 in assay [1] and in assay [2] were 1.7 µM and no less than 50 µM, respectively.
As to `COc1ccc(C(=O)Nc2ccc(-c3ccccc3F)nc2)cc1C(=O)Nc1ccncc1F` [Example 27, N^1-[6-(2-fluorophenyl)pyridin-3-yl]-N^3-(3-fluoropyridin-4-yl)-4-methoxyisophthalamide], the IC50 in assay [1] was 0.645 µM; in assay [2] it was no less than 50 µM.
As for `Nc1ccc(CNC(=O)c2cc(C(=O)Nc3ccc(-c4ccccc4)cc3)ccc2OC(F)(F)F)cn1` [Example 29, N^3-[(6-aminopyridin-3-yl)methyl]-N^1-(biphenyl-4-yl)-4-(trifluoromethoxy)isophthalamide], the results for the IC50 in assay [1] and in assay [2] were 0.76 µM and 16 µM, respectively.
Consider `COc1ccc(NC(=O)c2ccc(-c3ccccc3)cc2)cc1C(=O)NCCCOC(C)C` [Example 6, N-{3-[(3-isopropoxypropyl)carbamoyl]-4-methoxyphenyl}biphenyl-4-carboxamide], for which the IC50 in assay [1] was 0.383 µM; in assay [2] it was 14.4 µM.
Take `COc1ccc(C(=O)Nc2ccc(-c3ccccc3)cc2)cc1C(=O)NCc1cccnc1` [Example 16, N^1-(biphenyl-4-yl)-4-methoxy-N^3-(pyridin-3-ylmethyl)isophthalamide]: the IC50 in assay [1] is 0.64 µM; in assay [2] it was no less than 50 µM.
Regarding `COc1ccc(C(=O)Nc2ccc(-c3ccccc3)cc2)cc1C(=O)NCc1ccc(N)nc1` [Example 61, N^3-[(6-aminopyridin-3-yl)methyl]-N^1-(bipheny-4-yl)-4-methoxyisophthalamide], the figures for the IC50 in assay [1] and in assay [2] were 34 µM and no less than 50 µM, respectively.
Regarding `COc1ccc(C(=O)Nc2ccc(-c3ccccc3F)nc2)cc1C(=O)NCc1ccccn1` [Example 53, N^1-[6-(2-fluorophenyl)pyridin-3-yl]-4-methoxy-N^3-(pyridin-2-ylmethyl)isophthalamide], the results for the IC50 in assay [1] and in assay [2] were 10 µM and no less than 50 µM, respectively.
Consider `O=C(Nc1ccc(-c2ccccc2)cc1)c1ccc(OC(F)(F)F)c(C(=O)NCc2cccnc2)c1` [Example 21, N^1-(biphenyl-4-yl)-N^3-(pyridin-3-ylmethyl)-4-(trifluoromethoxy)isophthalamide], for which the IC50 in assay [1] is 0.16 µM; in assay [2], 32.5 µM.
On to `COc1ccc(C(=O)Nc2ccc(-c3ccccc3)cc2)cc1C(=O)Nc1ccncc1C` [Example 13, N^1-(biphenyl-4-yl)-4-methoxy-N^3-(3-methylpyridin-4-yl)isophthalamide], for which the IC50 in assay [1] is 0.405 µM; in assay [2], no less than 50 µM.
Regarding `O=C(Nc1ccc(-c2ccccc2F)nc1)c1ccc(OC(F)(F)F)c(C(=O)Nc2cccnc2)c1` [Example 57, N^1-[6-(2-fluorophenyl)pyridin-3-yl]-N^3-(pyridin-3-yl)-4-(trifluoromethoxy) isophthalamide], the IC50 in assay [1] amounted to 2.6 µM; in assay [2], 11 µM.
In the case of `COCCCNC(=O)c1cc(NC(=O)c2ccc(-c3ccccc3)cc2)ccc1OC` [Example 2, N-{4-methoxy-3-[(3-methoxypropyl)carbamoyl]phenyl}biphenyl-4-carboxamide], the IC50 is 0.495 µM in assay [1] and no less than 50 µM in assay [2].
Consider `COc1ccc(C(=O)Nc2ccc(-c3ccccc3)cc2)cc1C(=O)Nc1ccncc1F` [Example 14, N^1-(biphenyl-4-yl)-N^3-(3-fluoropyridin-4-yl)-4-methoxyisophthalamide], for which the results for the IC50 in assay [1] and in assay [2] were 0.144 µM and no less than 50 µM, respectively.
As to `Cc1cc(NC(=O)c2cc(C(=O)Nc3ccc(-c4ccccc4)cc3)ccc2OC(F)(F)F)ccn1` [Example 10, N^1-(biphenyl-4-yl)-N^3-(2-methylpyridin-4-yl)-4-(trifluoromethoxy)isophthalamide], the IC50 in assay [1] came to 0.6 µM; in assay [2], 10 µM.
On to `O=C(Nc1ccc(-c2ccccc2)cc1)c1ccc(OC(F)(F)F)c(C(=O)Nc2ccncc2)c1` [Example 20, N^1-(biphenyl-4-yl)-N^3-(pyridin-4-yl)-4-(trifluoromethoxy)isophthalamide], for which the results for the IC50 in assay [1] and in assay [2] were 0.335 µM and 7.55 µM, respectively.
Turning to `Nc1cccc(CNC(=O)c2cc(C(=O)Nc3ccc(-c4ccccc4F)nc3)ccc2OC(F)(F)F)n1` [Example 49, N^3-[(6-aminopyridin-2-yl)methyl]-N^1-[6-(2-fluorophenyl)pyridin-3-yl]-4-(trifluoromethoxy) isophthalamide], the IC50 in assay [1] was 4.8 µM; in assay [2] it was no less than 50 µM.
Consider `O=C(Nc1ccc(-c2ccccc2F)nc1)c1ccc(OC(F)(F)F)c(C(=O)NCc2ccccn2)c1` [Example 52, N^1-[6-(2-fluorophenyl)pyridin-3-yl]-N^3-(pyridin-2-ylmethyl)-4-(trifluoromethoxy) isophthalamide], for which the results for the IC50 in assay [1] and in assay [2] were 1.75 µM and 12 µM, respectively.
As for `COCCNC(=O)c1cc(NC(=O)c2ccc(-c3ccccc3)cc2)ccc1OC` [Example 31, N-{4-methoxy-3-[(2-methoxyethyl)carbamoyl]phenyl}biphenyl-4-carboxamide], the IC50 in assay [1] is 4.59 µM; in assay [2] it was no less than 50 µM.
As to `COc1ccc(C(=O)Nc2ccc(-c3ccccc3)cc2)cc1C(=O)Nc1cccnc1C` [Example 62, N^1-(biphenyl-4-yl)-4-methoxy-N^3-(2-methylpyridin-3-yl)isophthalamide], the IC50 in assay [1] was 45 µM; in assay [2] it was no less than 50 µM.
Consider `COCCCN(C)C(=O)c1cc(NC(=O)c2ccc(-c3ccccc3)cc2)ccc1OC` [Example 4, N-{4-methoxy-3-[(3-methoxypropyl)(methyl)carbamoyl]phenyl}biphenyl-4-carboxamide], for which the IC50 in assay [1] worked out at 0.815 µM; in assay [2] it was 12.2 µM.
On to `COc1ccc(C(=O)Nc2ccc(-c3ccccc3)cc2)cc1C(=O)NCc1ccccn1` [Example 39, N^1-(biphenyl-4-yl)-4-methoxy-N^3-(pyridin-2-ylmethyl)isophthalamide], for which the IC50 in assay [1] is 3.4 µM; in assay [2], no less than 50 µM.
Consider `COc1ccc(NC(=O)c2ccc(-c3ccccc3)cc2)cc1C(=O)Nc1ccncc1F` [Example 8, N-{3-[(3-fluoropyridin-4-yl)carbamoyl]-4-methoxyphenyl}biphenyl-4-carboxamide], for which the results for the IC50 in assay [1] and in assay [2] were 0.129 µM and no less than 50 µM, respectively.

In general, IC50 refers to the midpoint of a concentration-inhibition curve.

These data come from patent US20180028507A1, “3-CARBAMOYLPHENYL-4-CARBOXAMIDE AND ISOPHTALAMIDE DERIVATIVES AS INHIBITORS OF THE WNT SIGNALLING PATHWAY” (Bayer Pharma Aktiengesellschaft, priority 2015, published 2018).
